Among the data in patent US20090318485A1, “NOVEL INHIBITORS OF RHO KINASE” (KALYPSYS, INC., priority 2006, published 2009) are IC50 values, retold here.

Test [1] concerns the target T1, recombinant N-terminal GST-tagged human Rho kinase 2 (ROCK2, amino acids 1-552) (Homo sapiens, UniProt O75116).
T1 construct: human Rho kinase 2 (ROCK2, amino acids 1-552, Invitrogen Inc); purchased Invitrogen Inc. PV3759
Kind of test: In vitro Rho kinase assay (luciferase-based ATP consumption), ROCK2. The class given is biochemical. The following applies: 3 μM ATP, S6 peptide substrate, 30° C. for 2 hours; read-out: ROCK 2 IC50. As for the experimental part: (§1) In Vitro Rho Kinase Assay
(§2) Rho kinase biochemical assays described below depend on firefly luciferase-based, indirect measurement of total ATP consumption by the kinase following incubation with substrate and ATP. […] The plate is centrifuged for 30 seconds at approximately 200×g. 240 nl of test compound in DMSO is dispensed to each well by passive pin transfer. The lag phase of this in vitro kinase reaction permits addition of compounds soon after the reaction initiates. The reaction is allowed to incubate at 30° C. for 2 hours. The assay plates are sealed and maintained in a humidified environment. […] After an additional 10 minute incubation at room temperature (about 22° C.), luminescence activity is measured on a Molecular Devices Analyst multi-mode plate reader or other suitable plate reader. Kinase inhibition results in less ATP consumption, and therefore increased luminescence signal. Negative control activity is measured with DMSO lacking any test compound. The positive control is 2-methyl-1-(4-methylisoquinolin-5-ylsulfonyl)perhydro-1,4-diazepine hydrochloride (aka H-1152P, HCl salt). Efficacy is measured as a percentage of positive control activity.

The target of test [2] is T2, recombinant N-terminal GST-tagged human Rho kinase 1 (ROCK1, amino acids 1-535) (Homo sapiens, UniProt Q13464).
T2 construct: human Rho kinase 1 (ROCK1, amino acids 1-535, Invitrogen Inc); purchased Invitrogen Inc. PV-3691
Nature of the test: In vitro Rho kinase assay (luciferase-based ATP consumption), ROCK1. The format is biochemical. The following applies: 3 μM ATP, S6 peptide substrate, 30° C. for 2 hours; read-out: ROCK 1 IC50. On the procedure:
as §1, §2

Some results are limits rather than exact numbers.

T1 sequence (O75116 1-552): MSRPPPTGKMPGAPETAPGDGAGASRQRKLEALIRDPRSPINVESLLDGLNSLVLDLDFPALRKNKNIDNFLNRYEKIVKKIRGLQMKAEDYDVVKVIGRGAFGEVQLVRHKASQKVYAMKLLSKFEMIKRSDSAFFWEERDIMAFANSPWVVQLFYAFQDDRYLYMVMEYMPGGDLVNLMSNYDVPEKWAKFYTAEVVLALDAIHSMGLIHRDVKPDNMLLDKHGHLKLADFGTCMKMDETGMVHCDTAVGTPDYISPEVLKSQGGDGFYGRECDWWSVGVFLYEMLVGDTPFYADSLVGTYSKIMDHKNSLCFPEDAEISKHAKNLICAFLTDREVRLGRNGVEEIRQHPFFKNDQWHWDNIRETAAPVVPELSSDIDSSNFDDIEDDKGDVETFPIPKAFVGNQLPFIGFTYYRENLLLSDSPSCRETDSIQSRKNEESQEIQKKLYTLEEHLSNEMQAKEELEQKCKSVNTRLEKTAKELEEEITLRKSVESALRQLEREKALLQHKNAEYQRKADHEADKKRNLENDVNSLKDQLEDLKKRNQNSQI
T2 sequence (Q13464 1-535): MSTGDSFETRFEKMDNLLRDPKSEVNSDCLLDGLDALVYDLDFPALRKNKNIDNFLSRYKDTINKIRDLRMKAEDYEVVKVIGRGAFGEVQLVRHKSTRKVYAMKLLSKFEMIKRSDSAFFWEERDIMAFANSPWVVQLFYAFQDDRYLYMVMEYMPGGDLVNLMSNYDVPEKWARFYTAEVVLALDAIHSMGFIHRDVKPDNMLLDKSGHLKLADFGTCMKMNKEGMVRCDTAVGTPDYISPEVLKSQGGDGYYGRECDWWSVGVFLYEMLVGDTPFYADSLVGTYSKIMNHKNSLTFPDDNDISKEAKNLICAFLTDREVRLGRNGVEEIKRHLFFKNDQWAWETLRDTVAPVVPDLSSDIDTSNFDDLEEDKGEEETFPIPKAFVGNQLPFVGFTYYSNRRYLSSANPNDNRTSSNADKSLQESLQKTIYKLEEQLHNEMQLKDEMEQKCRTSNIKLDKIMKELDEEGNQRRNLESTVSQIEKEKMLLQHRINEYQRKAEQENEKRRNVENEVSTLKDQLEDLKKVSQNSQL

For orientation: IC50 means the point on the concentration scale where inhibition reaches its midpoint. With `C=CCc1cccc2cc(C(N)=O)c(=N)oc12` [Example 1], the IC50 in test [1] and in test [2] was not above 5 µM throughout.
As for `Cc1cc(C)c2c(N)c(C(N)=O)sc2n1` [Example 2], the IC50 in test [1] and in test [2] was not above 5 µM each time.
For the compound `CC(C)c1cc2cc(/C=C/C(=O)O)c(O)cc2o1` [Example 3], the IC50 in test [1] and in test [2] was not above 5 µM each time.
As for `CN(C)CCN(Cc1ccccc1)Cc1cc(-c2ccnc3cc(Cl)ccc23)ccc1O` [Example 4], the IC50 in test [1] was not above 5 µM; in test [2] it was more than 5 µM.
On the same counts, the results for `CSc1nc(-c2ccncc2)nc(N)c1C#N` [Example 5] are not above 5 µM and not above 5 µM.
For `CC(C)(CO)CNc1nc(-c2ccncc2)cnc1N` [Example 6], in that order: not above 5 µM and not above 5 µM.
As to `CC(CCc1ccc(O)cc1)Nc1ccc2[nH]ncc2c1` (stereo not drawn) [Example 7], the results for the IC50 in test [1] and in test [2] were more than 5 µM and not above 5 µM, respectively.
Consider `CC(OC(=O)c1ccc(O)cc1)C(=O)Nc1ccc(Cl)c(Cl)c1` (stereo not drawn) [Example 8], for which the IC50 in test [1] and in test [2] was not above 5 µM in each case.
Regarding `C=CCN(CC=C)S(=O)(=O)c1ccc2nc(N)sc2c1` [Example 9], the IC50 in test [1] and in test [2] was not above 5 µM each time.
For the compound `Cc1cc(=O)oc2cc(OC(C)C(=O)Nc3nccs3)ccc12` (stereo not drawn) [Example 10], the half-inhibitory concentration (IC50) in test [2] is more than 5 µM.
On to `O=C1NC(=Cc2ccc(O)c(Br)c2)C(=O)N1Cc1ccccc1F` [Example 11], for which the IC50 in test [1] and in test [2] was not above 5 µM throughout.
As for `CCOC(=O)c1nnn(-c2nonc2N)c1-c1ccccc1Cl` [Example 12], the IC50 in test [1] and in test [2] was more than 5 µM each time.
Consider `CC1CCC(C(=O)NC(C(=O)Nc2ccncc2)C(C)C)CC1` (stereo not drawn) [Example 13], for which the IC50 in test [1] and in test [2] was not above 5 µM each time.
As for `Clc1ccc(Cn2cc(-c3ccncc3)cn2)c(Cl)c1` [Example 15], the half-maximal inhibitory concentration (IC50) in test [1] and in test [2] was not above 5 µM throughout.
